Activity calls are given as the source filed them. No cut-off for these calls is given here. Bounds are passed on as bounds.

The target of test [1] is T1, Proto-oncogene tyrosine-protein kinase Src (Homo sapiens, UniProt P12931).
The target in test [2] is Hepatocyte growth factor receptor (Homo sapiens, UniProt P08581).
The target in test [3] is Tyrosine-protein kinase ABL1 (Homo sapiens, UniProt P00519). In words: biochemical.
Test [4] deals with T2, Tyrosine-protein kinase Mer (Homo sapiens, UniProt Q12866).
T2 sequence (Q12866 whole entry): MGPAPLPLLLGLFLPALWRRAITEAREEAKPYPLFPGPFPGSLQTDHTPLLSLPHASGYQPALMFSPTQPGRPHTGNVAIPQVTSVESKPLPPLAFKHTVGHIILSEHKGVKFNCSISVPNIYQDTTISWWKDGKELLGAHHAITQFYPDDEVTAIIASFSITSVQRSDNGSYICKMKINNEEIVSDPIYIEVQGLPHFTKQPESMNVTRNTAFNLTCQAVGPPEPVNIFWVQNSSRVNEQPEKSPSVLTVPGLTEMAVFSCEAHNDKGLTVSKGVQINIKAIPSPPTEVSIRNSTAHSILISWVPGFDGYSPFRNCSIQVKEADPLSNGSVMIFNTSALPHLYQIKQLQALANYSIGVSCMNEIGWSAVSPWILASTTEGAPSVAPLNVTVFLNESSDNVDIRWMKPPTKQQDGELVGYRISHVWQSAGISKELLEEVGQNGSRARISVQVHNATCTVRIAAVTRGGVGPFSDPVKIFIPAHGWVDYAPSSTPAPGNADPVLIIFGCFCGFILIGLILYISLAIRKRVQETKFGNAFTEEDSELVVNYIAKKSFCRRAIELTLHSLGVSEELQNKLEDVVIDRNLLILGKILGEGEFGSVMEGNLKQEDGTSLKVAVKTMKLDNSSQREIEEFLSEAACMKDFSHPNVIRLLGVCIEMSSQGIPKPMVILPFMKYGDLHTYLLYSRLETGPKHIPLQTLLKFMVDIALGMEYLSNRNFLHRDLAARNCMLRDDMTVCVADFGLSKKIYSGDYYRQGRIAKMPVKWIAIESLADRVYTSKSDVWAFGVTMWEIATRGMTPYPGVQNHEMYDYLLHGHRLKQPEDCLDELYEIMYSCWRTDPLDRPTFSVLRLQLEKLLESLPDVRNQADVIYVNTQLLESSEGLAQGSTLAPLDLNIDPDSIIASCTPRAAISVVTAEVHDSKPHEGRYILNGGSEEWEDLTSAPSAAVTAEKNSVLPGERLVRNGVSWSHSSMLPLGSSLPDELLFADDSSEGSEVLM

The target of test [5] is Tyrosine-protein kinase Lck (Homo sapiens, UniProt P06239).
Tyrosine-protein kinase Lck, sequence (P06239 whole entry): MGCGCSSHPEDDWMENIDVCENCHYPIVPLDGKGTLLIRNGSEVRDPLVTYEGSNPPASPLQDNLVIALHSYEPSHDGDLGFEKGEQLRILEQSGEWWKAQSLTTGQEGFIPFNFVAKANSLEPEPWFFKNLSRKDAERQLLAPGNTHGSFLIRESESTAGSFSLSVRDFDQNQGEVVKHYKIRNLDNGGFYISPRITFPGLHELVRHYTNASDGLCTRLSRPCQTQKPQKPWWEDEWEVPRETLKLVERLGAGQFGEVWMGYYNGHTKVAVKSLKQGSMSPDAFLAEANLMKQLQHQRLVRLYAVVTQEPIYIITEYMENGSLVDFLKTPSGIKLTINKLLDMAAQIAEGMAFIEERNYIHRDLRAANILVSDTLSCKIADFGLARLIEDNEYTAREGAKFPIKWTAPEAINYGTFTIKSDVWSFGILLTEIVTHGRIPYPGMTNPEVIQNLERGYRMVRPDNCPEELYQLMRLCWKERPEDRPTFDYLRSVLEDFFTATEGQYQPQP
In test [6] the target is Tyrosine-protein kinase Fer (Homo sapiens, UniProt P16591). In words: biochemical.
Tyrosine-protein kinase Fer, sequence (P16591 whole entry): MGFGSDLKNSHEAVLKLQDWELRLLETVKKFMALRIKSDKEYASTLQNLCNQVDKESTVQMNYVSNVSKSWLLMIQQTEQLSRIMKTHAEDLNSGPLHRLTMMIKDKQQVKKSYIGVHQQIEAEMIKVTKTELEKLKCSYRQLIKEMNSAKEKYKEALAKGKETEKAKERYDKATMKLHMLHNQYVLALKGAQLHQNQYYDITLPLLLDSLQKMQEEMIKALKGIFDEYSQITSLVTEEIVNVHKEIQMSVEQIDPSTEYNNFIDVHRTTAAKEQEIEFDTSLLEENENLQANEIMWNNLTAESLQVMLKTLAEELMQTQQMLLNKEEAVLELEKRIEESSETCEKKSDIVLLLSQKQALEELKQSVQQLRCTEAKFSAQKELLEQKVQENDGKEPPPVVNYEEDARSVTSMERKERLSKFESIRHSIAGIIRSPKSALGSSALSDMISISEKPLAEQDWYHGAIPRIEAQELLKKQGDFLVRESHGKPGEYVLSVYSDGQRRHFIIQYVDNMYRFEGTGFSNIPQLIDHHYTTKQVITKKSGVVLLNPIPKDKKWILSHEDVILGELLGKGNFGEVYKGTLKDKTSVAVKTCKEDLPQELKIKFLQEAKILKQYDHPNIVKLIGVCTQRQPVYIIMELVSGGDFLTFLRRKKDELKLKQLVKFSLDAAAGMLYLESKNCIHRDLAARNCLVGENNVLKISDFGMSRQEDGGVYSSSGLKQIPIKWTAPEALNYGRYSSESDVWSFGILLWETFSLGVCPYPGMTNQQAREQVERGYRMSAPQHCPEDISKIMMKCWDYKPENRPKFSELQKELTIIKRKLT
In test [7] the target is Cyclin-dependent kinase 8 (Homo sapiens, UniProt P49336).
Cyclin-dependent kinase 8, sequence (P49336 whole entry): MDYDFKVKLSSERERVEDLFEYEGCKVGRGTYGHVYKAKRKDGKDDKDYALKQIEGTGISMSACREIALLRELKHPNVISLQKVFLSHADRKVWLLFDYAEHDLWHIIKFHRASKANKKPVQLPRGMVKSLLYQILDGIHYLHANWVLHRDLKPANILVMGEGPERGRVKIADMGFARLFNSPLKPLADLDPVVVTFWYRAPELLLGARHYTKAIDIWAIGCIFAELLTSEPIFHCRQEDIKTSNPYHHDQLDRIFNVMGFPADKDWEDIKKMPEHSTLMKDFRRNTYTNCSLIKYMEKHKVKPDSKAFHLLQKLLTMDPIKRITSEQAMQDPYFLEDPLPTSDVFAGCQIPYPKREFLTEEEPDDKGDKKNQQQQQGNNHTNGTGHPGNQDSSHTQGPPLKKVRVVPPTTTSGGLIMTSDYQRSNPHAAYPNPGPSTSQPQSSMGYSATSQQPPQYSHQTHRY
For test [8], the target named is T1, Proto-oncogene tyrosine-protein kinase Src. In words: biochemical.
Test [9] addresses T3, Dual specificity mitogen-activated protein kinase kinase 5 (Homo sapiens, UniProt Q13163).
T3 sequence (Q13163 whole entry): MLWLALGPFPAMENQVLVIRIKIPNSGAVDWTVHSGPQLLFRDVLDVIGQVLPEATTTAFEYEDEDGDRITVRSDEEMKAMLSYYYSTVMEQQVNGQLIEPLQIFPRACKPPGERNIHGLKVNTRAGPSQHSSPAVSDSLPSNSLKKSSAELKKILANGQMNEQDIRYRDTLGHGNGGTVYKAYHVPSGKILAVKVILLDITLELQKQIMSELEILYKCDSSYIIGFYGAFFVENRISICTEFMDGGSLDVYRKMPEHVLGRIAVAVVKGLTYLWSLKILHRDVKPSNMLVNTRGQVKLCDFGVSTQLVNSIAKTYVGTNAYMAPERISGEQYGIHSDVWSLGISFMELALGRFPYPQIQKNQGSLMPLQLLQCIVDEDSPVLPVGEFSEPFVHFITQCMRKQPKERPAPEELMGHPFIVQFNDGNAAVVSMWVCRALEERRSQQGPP
Kind of test: biochemical.

The next test deals with Aurora kinase B (Homo sapiens, UniProt Q96GD4).
In test [10] the test system is B16-F10. In words: Antitumor activity against mouse B16-F10 cells xenografted in Cbl-b+/- mouse assessed as reduction in melanoma metastases in lungs at 0.5 mg/L, po administered for 16 days by haematoxylin and eosin staining based microscope analysis. It is filed as functional, organism-based. The note with it: time 16.0 day.
Test [11] relates to B16-F10. In words: Antitumor activity against mouse B16-F10 cells xenografted in Cbl-b+/+ mouse assessed as reduction in melanoma metastases in lungs at 0.5 mg/L, po administered for 16 days by haematoxylin and eosin staining based microscope analysis. It is filed as functional, organism-based. The note with it: time 16.0 day.
Test [12] deals with RMA-S. Kind of test: Cytotoxicity against RMA-S cells overexpressing Rae1 in Cbl-b+/+ mouse by flow cytometry analysis. It is filed as functional, cell-based. (Flow cytometry measures light scatter and fluorescence of single cells or particles in a stream.)
Test [13] deals with B16-F10. Kind of test: Antitumor activity against mouse B16-F10 cells xenografted in Cbl-b+/+ mouse assessed as coagulation at 0.5 mg/L, po administered for 16 days by coagulometer analysis. It is filed as functional, organism-based. The settings on record: time 16.0 day.
In test [14] the test system is RMA-S. Kind of test: Cytotoxicity against RMA-S cells in Cbl-b+/+ mouse by flow cytometry analysis. It is filed as functional, cell-based.
Test [15] deals with B16-F10. Kind of test: Antitumor activity against mouse B16-F10 cells xenografted in Cbl-b+/- mouse assessed as coagulation at 0.5 mg/L, po administered for 16 days by coagulometer analysis. It is filed as functional, organism-based. The note with it: time 16.0 day.
The test system of a further test is 4T1. In words: Anticoagulant activity against mouse 4T1 cells xenografted in Balb/c mouse assessed as prothrombin time at 0.5 mg/L, po administered for 16 days by coagulometer analysis (reference value: 15.10 +/- 1.46 sec). It is filed as functional. The settings on record: time 16 day.
For test [16], the system named is B16-F10. In words: Antitumor activity against mouse B16-F10 cells xenografted in Cbl-b defective mouse assessed as reduction in melanoma metastases at 0.5 mg/L, po administered for 16 days by haematoxylin and eosin staining based microscope analysis. It is filed as functional, organism-based. The settings on record: time 16.0 day.

T1 sequence (P12931 whole entry, looked up): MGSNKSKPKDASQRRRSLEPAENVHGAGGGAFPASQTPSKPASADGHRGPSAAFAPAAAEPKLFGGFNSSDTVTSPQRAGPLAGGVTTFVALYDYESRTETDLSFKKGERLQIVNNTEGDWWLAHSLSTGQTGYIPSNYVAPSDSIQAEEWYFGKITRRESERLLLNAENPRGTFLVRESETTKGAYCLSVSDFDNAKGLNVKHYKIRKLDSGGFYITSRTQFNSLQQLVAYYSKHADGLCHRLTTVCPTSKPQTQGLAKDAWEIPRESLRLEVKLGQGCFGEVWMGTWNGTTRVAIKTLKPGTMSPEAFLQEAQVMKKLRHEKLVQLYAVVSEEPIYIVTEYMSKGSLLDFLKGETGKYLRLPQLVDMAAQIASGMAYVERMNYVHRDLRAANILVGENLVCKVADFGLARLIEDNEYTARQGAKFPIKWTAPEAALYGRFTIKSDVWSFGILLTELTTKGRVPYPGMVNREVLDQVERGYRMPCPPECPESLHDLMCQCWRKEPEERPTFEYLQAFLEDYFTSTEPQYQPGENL
Tyrosine-protein kinase ABL1, sequence (P00519 whole entry): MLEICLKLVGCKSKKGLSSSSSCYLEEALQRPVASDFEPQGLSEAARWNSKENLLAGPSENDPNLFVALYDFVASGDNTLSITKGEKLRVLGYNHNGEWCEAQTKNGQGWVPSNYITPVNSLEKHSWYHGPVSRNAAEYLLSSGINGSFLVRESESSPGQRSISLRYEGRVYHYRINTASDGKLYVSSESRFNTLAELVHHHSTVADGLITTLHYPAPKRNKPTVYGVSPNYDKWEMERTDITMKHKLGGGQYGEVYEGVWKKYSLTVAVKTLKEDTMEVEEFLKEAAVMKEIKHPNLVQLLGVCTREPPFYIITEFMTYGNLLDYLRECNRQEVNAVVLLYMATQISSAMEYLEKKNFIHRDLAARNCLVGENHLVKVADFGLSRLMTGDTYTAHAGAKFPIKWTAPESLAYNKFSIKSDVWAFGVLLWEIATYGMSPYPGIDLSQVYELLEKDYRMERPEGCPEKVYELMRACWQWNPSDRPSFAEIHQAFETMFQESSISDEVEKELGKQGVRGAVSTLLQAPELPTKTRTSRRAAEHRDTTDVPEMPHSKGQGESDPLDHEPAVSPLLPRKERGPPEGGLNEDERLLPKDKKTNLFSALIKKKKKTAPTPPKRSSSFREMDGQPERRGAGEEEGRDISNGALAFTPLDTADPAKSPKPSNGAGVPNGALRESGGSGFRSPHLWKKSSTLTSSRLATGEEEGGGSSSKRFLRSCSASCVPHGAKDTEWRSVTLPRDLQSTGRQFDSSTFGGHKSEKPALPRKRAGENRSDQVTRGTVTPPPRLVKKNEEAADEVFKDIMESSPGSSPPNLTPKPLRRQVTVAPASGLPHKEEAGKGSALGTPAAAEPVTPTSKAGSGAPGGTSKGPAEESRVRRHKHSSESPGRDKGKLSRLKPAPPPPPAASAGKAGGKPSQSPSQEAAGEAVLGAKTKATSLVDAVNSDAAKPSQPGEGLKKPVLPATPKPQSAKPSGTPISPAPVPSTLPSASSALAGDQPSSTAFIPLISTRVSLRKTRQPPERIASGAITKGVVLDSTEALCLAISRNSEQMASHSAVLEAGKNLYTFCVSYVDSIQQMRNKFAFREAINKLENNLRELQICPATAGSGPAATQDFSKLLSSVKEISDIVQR
Hepatocyte growth factor receptor, sequence (P08581 whole entry): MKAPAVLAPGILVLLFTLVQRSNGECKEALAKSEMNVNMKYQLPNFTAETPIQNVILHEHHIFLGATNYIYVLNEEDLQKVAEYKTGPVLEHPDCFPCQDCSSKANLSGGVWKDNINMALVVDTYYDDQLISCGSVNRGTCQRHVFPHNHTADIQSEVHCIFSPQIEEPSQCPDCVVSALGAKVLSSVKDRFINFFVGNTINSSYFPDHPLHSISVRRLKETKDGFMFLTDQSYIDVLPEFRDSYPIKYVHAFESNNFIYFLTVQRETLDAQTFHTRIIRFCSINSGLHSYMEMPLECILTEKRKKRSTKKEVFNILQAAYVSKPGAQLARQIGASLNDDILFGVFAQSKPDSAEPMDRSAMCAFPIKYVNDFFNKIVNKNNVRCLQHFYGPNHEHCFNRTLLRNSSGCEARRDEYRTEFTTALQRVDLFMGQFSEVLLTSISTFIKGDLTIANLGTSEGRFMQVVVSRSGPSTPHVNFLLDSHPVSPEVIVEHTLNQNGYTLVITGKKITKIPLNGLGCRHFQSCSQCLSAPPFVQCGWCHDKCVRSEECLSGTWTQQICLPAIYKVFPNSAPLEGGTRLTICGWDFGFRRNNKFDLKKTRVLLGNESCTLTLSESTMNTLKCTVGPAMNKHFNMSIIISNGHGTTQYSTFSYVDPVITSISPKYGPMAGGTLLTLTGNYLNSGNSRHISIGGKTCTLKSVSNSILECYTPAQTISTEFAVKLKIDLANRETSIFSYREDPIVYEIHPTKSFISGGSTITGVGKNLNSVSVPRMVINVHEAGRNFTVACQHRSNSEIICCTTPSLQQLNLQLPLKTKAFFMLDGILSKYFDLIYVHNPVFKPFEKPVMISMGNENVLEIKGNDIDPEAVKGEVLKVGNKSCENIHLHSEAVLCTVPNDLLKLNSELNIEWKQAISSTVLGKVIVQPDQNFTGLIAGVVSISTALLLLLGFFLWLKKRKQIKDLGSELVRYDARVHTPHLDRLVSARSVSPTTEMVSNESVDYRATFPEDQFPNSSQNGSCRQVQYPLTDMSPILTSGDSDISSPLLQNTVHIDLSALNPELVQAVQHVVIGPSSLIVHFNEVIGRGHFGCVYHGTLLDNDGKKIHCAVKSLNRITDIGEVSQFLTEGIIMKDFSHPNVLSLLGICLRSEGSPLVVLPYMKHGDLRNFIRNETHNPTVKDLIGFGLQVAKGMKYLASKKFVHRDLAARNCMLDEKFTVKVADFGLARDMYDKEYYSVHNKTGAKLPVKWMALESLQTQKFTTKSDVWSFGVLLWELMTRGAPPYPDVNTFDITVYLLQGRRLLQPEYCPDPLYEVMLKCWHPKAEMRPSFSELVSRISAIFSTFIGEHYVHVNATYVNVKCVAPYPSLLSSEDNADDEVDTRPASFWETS

Usually IC50 stands for the midpoint of a concentration-inhibition curve. A high value points to weaker potency in that assay. By Kd is commonly meant the equilibrium constant for the complex coming apart. A higher Kd goes with lower affinity. With `CCOc1cn(-c2ccc(F)cc2C)nc1C(=O)Nc1ccc(Oc2ccnc3cc(OC)c(OC)cc23)c(F)c1`, the IC50 in test [1] is 338 nM; in test [2] it was 35 nM; in test [4], less than 5 nM; in [5], 51 nM; in [7] it was 3170 nM; against Aurora kinase B it was 36 nM. Moreover, the Kd was 154 nM in test [3], 107 nM in [6], 217 nM in [8] and 124 nM in [9].
For `CC(=O)CC(c1ccccc1)c1c(O)c2ccccc2oc1=O` (stereo not drawn) [WARFARIN], the outcome in the test on B16-F10 [10], in the test with B16-F10 [11], with RMA-S [12], with B16-F10 [13], in the test on RMA-S [14] and with B16-F10 [15] was Active. The PT in the test with 4T1 is 19.13 s. In the test with B16-F10 [16], the outcome was inactive.
